Tests used:
[1] = test system: SCD (HbSS mice), Townes transgenic mouse model; experiment: Substance P-induced vaso-occlusive crisis (VOC) occurrence and overall survival in Townes transgenic sickle mice; assay type: in vivo
Description: The Townes transgenic mouse model was utilized for this study (Wu L C et al., Blood 2006; 108:1183-1188). A total of 18 mice were assigned to 3 treatment groups; namely: SCD (HbSS mice) treated with masitinib (SCD Masitinib—intervention group), untreated SCD mice (SCD—positive control group), and WT mice (WT—negative control group).
The HbSS-Townes mouse model was created on a mixed genetic background in which the murine adult α-globin genes were replaced with the human α-globin gene (genotype: Hba hα/hα) and the murine adult β-globin genes were replaced with human sickle βS- and fetal Aγ-globin gene fragments linked together (genotype: Hbb hAγβS/hAγβS) (Nguyen J, et al., Blood 2014; 124(21):4916). HbSS-Townes mice have anemia, a shortened red blood cell half-life of 2.5 days and a severe disease phenotype. Control HbAA-Townes mice were created by replacing the murine globin genes with human α-globin gene (genotype: Hba hα/hα) and linked human βA- and fetal Aγ-globins (genotype: Hbb hAγβA/hAγβA).
Mice were administered freshly prepared solutions of substance P (4 to 40 mg/kg) via intravenous injection.
Mice in the intervention group were administered masitinib at 100 mg/kg/day via gavage for 4 days prior to injection of substance P. […]
Vaso-occlusive crisis (VOC) occurrence and overall survival were analyzed in the mice. […]

[2] = test system: lung tissue of SCD (HbSS) Townes mice; experiment: Lung tissue histology (hematoxylin and eosin; anti-FcεRIα immunostaining) of SCD mice after substance P injection; assay type: in vivo; settings: masitinib 100 mg/kg/day via gavage for 4 days prior to substance P
Description: The Townes transgenic mouse model was utilized for this study (Wu L C et al., Blood 2006; 108:1183-1188). A total of 18 mice were assigned to 3 treatment groups; namely: SCD (HbSS mice) treated with masitinib (SCD Masitinib—intervention group), untreated SCD mice (SCD—positive control group), and WT mice (WT—negative control group). Mice were administered freshly prepared solutions of substance P (4 to 40 mg/kg) via intravenous injection. Mice in the intervention group were administered masitinib at 100 mg/kg/day via gavage for 4 days prior to injection of substance P. Lung tissue was processed immediately after death by cervical dislocation and fixed in 10% buffered formalin. For analysis of the lung tissue cellular structure, samples were stained with hematoxylin and eosin. For analysis of mast cell infiltration, samples were stained with an anti-FcεRIα primary antibody and a fluorophore secondary antibody. The cause of death was then analyzed. […] Lung tissue sections were stained with hematoxylin and eosin. For immunofluorescence, lung tissue sections were incubated with an anti-FcεRIα primary antibody and then stained with a fluorophore secondary antibody.

SMILES: Cc1ccc(NC(=O)c2ccc(CN3CCN(C)CC3)cc2)cc1Nc1nc(-c2cccnc2)cs1 [masitinib, 4-(4-methylpiperazin-1-ylmethyl)-N-[4-methyl-3-(4-pyridin-3ylthiazol-2-ylamino)phenyl]benzamide]
- Overall survival (death) ([1]; SCD mice pretreated with masitinib 100 mg/kg/day via gavage for 4 days prior to injection of substance P, 83% of untreated SCD mice died in the first 3 hours (FIG. 1)): none died
- Vaso-occlusive crisis (VOC) occurrence ([1]; SCD mice pretreated with masitinib 100 mg/kg/day via gavage for 4 days prior to intravenous injection of substance P, all untreated SCD mice experienced VOC): did not present any VOC
- Infiltration of lung tissue by FcεRI-positive cells (mast cells) ([2]; anti-FcεRIα immunofluorescence, versus untreated SCD mice (FIGS. 2A to 2H)): to a far lesser degree
- Development of acute chest syndrome (ACS) ([2]; concluded from limited FcεRI-positive cell infiltration and absent or limited edema): did not develop ACS
- Lung edema ([2]; hematoxylin and eosin staining, versus untreated SCD mice): reduced
